As a reminder, the IC50 is the concentration that gives 50% inhibition.

Assay [1] has as its target T1, human CB1 receptor (Homo sapiens, UniProt P21554).
T1 construct: expressed in transfected cells; host or cells: HEK293
Kind of assay: bioSensAll GAPL-Gi2 BRET biosensor assay in HEK293 cells transfected with hCB1; test compound added before EC75-80 of agonist CP55,940 (0.1 nM). The settings on record: vs CP55,940 0.1 nM (EC75-80), read-out: CB1 wt Gi2 IC50. It counts as cell-based. Put shortly:
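Test compounds at 12 doses up to 600 nM preceded a 0.1 nM CP55,940 challenge in hCB1/GAPL-Gi2 HEK293 cells. After overnight 37° C incubation, methoxy e-coelenterazine (2 µM final) was added and the 515/400 nm BRET ratio normalized to positive and negative controls.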

Assay [2] concerns the target T1, human CB1 receptor. Kind of assay: bioSensAll β-arrestin2 plasma membrane translocation (+GRK2) BRET biosensor assay in HEK293 cells transfected with hCB1; test compound added before EC75-80 of agonist CP55,940 (100 nM). The conditions noted are these: βArrestin2 (+GRK2) BRET biosensor, vs CP55,940 100 nM (EC75-80), read-out: CB1 wt βarr2 IC50. It counts as cell-based. Put shortly:
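Antagonist mode: compound at 12 concentrations up to 600 nM, then 100 nM CP55,940 3–5 min later, on hCB1-transfected HEK293 cells carrying the β-arrestin2 plasma-membrane biosensor plus GRK2. After overnight 37 °C incubation, 515/400 nm BRET ratio measured with 2 µM methoxy e-CTZ and standardized against positive/negative controls.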
(In BRET a luciferase serves as donor, and the signal depends on an acceptor being close.)

T1 sequence (P21554 whole entry): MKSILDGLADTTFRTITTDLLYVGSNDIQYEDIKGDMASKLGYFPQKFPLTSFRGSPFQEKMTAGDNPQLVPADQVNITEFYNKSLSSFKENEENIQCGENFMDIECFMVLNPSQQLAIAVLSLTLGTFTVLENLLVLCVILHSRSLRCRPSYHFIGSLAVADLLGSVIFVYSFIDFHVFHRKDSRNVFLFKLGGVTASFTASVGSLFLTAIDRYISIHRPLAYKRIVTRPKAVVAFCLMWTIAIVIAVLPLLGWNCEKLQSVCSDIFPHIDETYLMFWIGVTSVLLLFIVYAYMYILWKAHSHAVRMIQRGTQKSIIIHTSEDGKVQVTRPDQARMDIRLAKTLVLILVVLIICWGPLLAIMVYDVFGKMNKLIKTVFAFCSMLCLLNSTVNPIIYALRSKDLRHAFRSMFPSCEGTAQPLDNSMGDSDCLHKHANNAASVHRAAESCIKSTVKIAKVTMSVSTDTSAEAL

On to `CCOC1(C(N)=O)CCN(c2nc(N(C)CCO)nc3c2nc(-c2ccccc2Cl)n3-c2ccc(Cl)cc2)CC1` [Compound 182], for which the results for the IC50 on human CB1 receptor [1] and at human CB1 receptor [2] were 0.175 nM and 0.661 nM, respectively.
In the same order, the values of `CN(CCO)c1nc(N2CCOCC2)c2nc(-c3ccccc3Cl)n(-c3ccc(Cl)cc3)c2n1` [Compound 183] are 0.167 nM and 0.785 nM.
Take `CN(CCO)c1nc(N2CCC(F)(F)CC2)c2nc(-c3ccccc3Cl)n(-c3ccc(Cl)cc3)c2n1` [Compound 184]: the IC50 at human CB1 receptor [1] was 0.24 nM; at human CB1 receptor [2], 0.889 nM.
In the case of `CN(CCO)c1nc(N2CCC3(CCNC3=O)CC2)c2nc(-c3ccccc3Cl)n(-c3ccc(Cl)cc3)c2n1` [Compound 186], the IC50 at human CB1 receptor [1] was determined as 0.407 nM; at human CB1 receptor [2], 4.92 nM.
The matching figures for `CN(CCO)C(=O)C1CN(c2nc(N(C)CCO)nc3c2nc(-c2ccccc2Cl)n3-c2ccc(Cl)cc2)C1` [Compound 187]: 3.97 nM and 40.4 nM.
In the same order, the values of `CN(CCO)c1nc(N2CC3(COC3)C2)c2nc(-c3ccccc3Cl)n(-c3ccc(Cl)cc3)c2n1` [Compound 188] are 0.31 nM and 1.84 nM.
With `CC(C)Oc1nc(N(C)CCO)nc2c1nc(-c1ccccc1Cl)n2-c1ccc(Cl)cc1` [Compound 189], the IC50 came out at 0.419 nM on human CB1 receptor [1] and 1.35 nM at human CB1 receptor [2].
In the same order, the values of `CN(CCO)c1nc(N2CCC3(CC2)NC(=O)NC3=O)c2nc(-c3ccccc3Cl)n(-c3ccc(Cl)cc3)c2n1` [Compound 190] are 2.66 nM and 23.7 nM.
The matching figures for `CN(CCO)c1nc(N2CCC3(CCOC3)CC2)c2nc(-c3ccccc3Cl)n(-c3ccc(Cl)cc3)c2n1` [Compound 191]: 0.418 nM and 0.626 nM.
In the same order, the values of `CN(CCO)c1nc(N(C)C2CCOC2)c2nc(-c3ccccc3Cl)n(-c3ccc(Cl)cc3)c2n1` (centres unmarked) [Compound 197] are 0.161 nM and 1.19 nM.
Turning to `CC(C)(O)COc1nc(N2CCC(C(N)=O)CC2)c2nc(-c3ccccc3Cl)n(-c3ccc(Cl)cc3)c2n1` [Compound 198], the IC50 at human CB1 receptor [1] stood at 7.69 nM; at human CB1 receptor [2] it was 31.5 nM.
The matching figures for `CC(C)(O)COc1nc(N2CCC(C)(O)CC2)c2nc(-c3ccccc3Cl)n(-c3ccc(Cl)cc3)c2n1` [Compound 199]: 0.732 nM and 3.27 nM.
The matching figures for `CN(CCO)c1nc(N(C)CCO)c2nc(-c3ccccc3Cl)n(-c3ccc(Cl)cc3)c2n1` [Compound 200]: 1.72 nM and 25.2 nM.
With `CC(C)(O)COc1nc(N2C[C@H]3C[C@@H]2CO3)c2nc(-c3ccccc3Cl)n(-c3ccc(Cl)cc3)c2n1` [Compound 203], the results for the IC50 on human CB1 receptor [1] and at human CB1 receptor [2] were 1.39 nM and 6.49 nM, respectively.
The matching figures for `CC(C)(O)COc1nc(N2C[C@@H]3C[C@H]2CO3)c2nc(-c3ccccc3Cl)n(-c3ccc(Cl)cc3)c2n1` [Compound 204]: 3.96 nM and 16.6 nM.
The matching figures for `CC(C)Oc1nc(OC(C)C)c2nc(-c3ccccc3Cl)n(-c3ccc(Cl)cc3)c2n1` [Compound 205]: 6.04 nM and 54.6 nM.
The matching figures for `C[C@@H]1CN(c2nc(OCC(C)(C)O)nc3c2nc(-c2ccccc2Cl)n3-c2ccc(Cl)cc2)CCO1` [Compound 206]: 0.782 nM and 6.99 nM.
For the compound `CCOC1(C(N)=O)CCN(c2nc(OCC(C)(C)O)nc3c2nc(-c2ccccc2Cl)n3-c2ccc(Cl)cc2)CC1` [Compound 207], the figures for the IC50 on human CB1 receptor [1] and on human CB1 receptor [2] were 0.652 nM and 2.02 nM, respectively.
In the case of `CC(C)(O)COc1nc(N2CCS(=O)(=O)CC2)c2nc(-c3ccccc3Cl)n(-c3ccc(Cl)cc3)c2n1` [Compound 209], the IC50 was determined as 1.34 nM on human CB1 receptor [1] and 14.7 nM on human CB1 receptor [2].
In the case of `C[C@H]1CN(c2nc(OCC(C)(C)O)nc3c2nc(-c2ccccc2Cl)n3-c2ccc(Cl)cc2)CCO1` [Compound 210], the concentration for half-maximal inhibition (IC50) on human CB1 receptor [1] was 1.56 nM; on human CB1 receptor [2] it was 18.7 nM.
The matching figures for `C[C@H]1COCCN1c1nc(OCC(C)(C)O)nc2c1nc(-c1ccccc1Cl)n2-c1ccc(Cl)cc1` [Compound 211]: 0.943 nM and 6.86 nM.
Turning to `C[C@@H]1COCCN1c1nc(OCC(C)(C)O)nc2c1nc(-c1ccccc1Cl)n2-c1ccc(Cl)cc1` [Compound 212], the concentration for half-maximal inhibition (IC50) turned out to be 2.51 nM at human CB1 receptor [1] and 25.9 nM on human CB1 receptor [2].
Consider `COC1(C(N)=O)CCN(c2nc(OCC(C)(C)O)nc3c2nc(-c2ccccc2Cl)n3-c2ccc(Cl)cc2)CC1` [Compound 213], for which the IC50 at human CB1 receptor [1] is 1.85 nM; on human CB1 receptor [2], 7.84 nM.
In the same order, the values of `CC(C)(O)COc1nc(N2CC3CCC(C2)O3)c2nc(-c3ccccc3Cl)n(-c3ccc(Cl)cc3)c2n1` [Compound 214] are 1.09 nM and 6.06 nM.
In the same order, the values of `CC(C)OC1(C(N)=O)CCN(c2nc(OCC(C)(C)O)nc3c2nc(-c2ccccc2Cl)n3-c2ccc(Cl)cc2)CC1` [Compound 215] are 0.707 nM and 1.64 nM.
In the same order, the values of `CC(C)(O)COc1nc(N2CCC(C)(C(=O)O)CC2)c2nc(-c3ccccc3Cl)n(-c3ccc(Cl)cc3)c2n1` [Compound 220] are 3.47 nM and 23.2 nM.
Regarding `CC(C)(O)COc1nc(N2CCNCC(F)(F)C2)c2nc(-c3ccccc3Cl)n(-c3ccc(Cl)cc3)c2n1` [Compound 221], the IC50 on human CB1 receptor [1] came to 4.04 nM; on human CB1 receptor [2], 30.6 nM.
The matching figures for `CC(=O)N1CCN(c2nc(OCC(C)(C)O)nc3c2nc(-c2ccccc2Cl)n3-c2ccc(Cl)cc2)CC1` [Compound 222]: 1.56 nM and 7.91 nM.
As for `CC1(C(N)=O)CCN(c2nc(N3CC[C@@](C)(O)C3)nc3c2nc(-c2ccccc2Cl)n3-c2ccc(Cl)cc2)CC1` [Compound 223], the IC50 at human CB1 receptor [1] was determined as 0.916 nM; on human CB1 receptor [2], 2.8 nM.
The matching figures for `COC(=O)N1CCN(c2nc(OCC(C)(C)O)nc3c2nc(-c2ccccc2Cl)n3-c2ccc(Cl)cc2)CC1` [Compound 224]: 1.27 nM and 7.99 nM.
The matching figures for `CC(=O)NC1(C)CCN(c2nc(OCC(C)(C)O)nc3c2nc(-c2ccccc2Cl)n3-c2ccc(Cl)cc2)CC1` [Compound 226]: 0.767 nM and 2.31 nM.
In the same order, the values of `CN1CCN(c2nc(OCC(C)(C)O)nc3c2nc(-c2ccccc2Cl)n3-c2ccc(Cl)cc2)CC1` [Compound 227] are 4.78 nM and 11.7 nM.
Consider `CN1C[C@H](F)C[C@H]1COc1nc(N2CCC(C)(C(N)=O)CC2)c2nc(-c3ccccc3Cl)n(-c3ccc(Cl)cc3)c2n1` [Compound 228], for which the IC50 on human CB1 receptor [1] worked out at 1.2 nM; on human CB1 receptor [2], 2.29 nM.
In the same order, the values of `CN1C[C@H](F)C[C@H]1COc1nc(N2CCC(C)(C(N)=O)CC2)c2nc(-c3ccccc3Cl)n(-c3ccc(Cl)cc3)c2n1` [Compound 232] are 0.934 nM and 1.94 nM.
The matching figures for `CN1C[C@H](Oc2nc(N3CCC(C)(C(N)=O)CC3)c3nc(-c4ccccc4Cl)n(-c4ccc(Cl)cc4)c3n2)C[C@H]1CO` [Compound 236]: 2.89 nM and 22.8 nM.
Regarding `NC(=O)C1CN(c2nc(N3CCC[C@H]3CO)nc3c2nc(-c2ccccc2Cl)n3-c2ccc(Cl)cc2)C1` [Compound 237], the IC50 was determined as 0.61 nM at human CB1 receptor [1] and 1.93 nM on human CB1 receptor [2].
The matching figures for `CCN1CCN(c2nc(OCC(C)(C)O)nc3c2nc(-c2ccccc2Cl)n3-c2ccc(Cl)cc2)CC1` [Compound 240]: 5.79 nM and 12.2 nM.

(Values after patent publication US20250333418A1, “PURINE COMPOUNDS, COMPOSITIONS COMPRISING THEM AND USES THEREOF” (Novo Nordisk A/S, priority 2022, published 2025).)
